Key:
Assay type in all cases: physicochemical
[1] = Particle-size distribution by laser diffraction (Cilas 1190)
Protocol: ATBS AH and crystals of ATBS.K AK2a are analysed by laser diffraction to determine their particle-size distribution.
The laser diffraction equipment used is a Cilas 1190.

[2] = Storage stability of ATBS / ATBS.K stored in solid form: homopolymer by steric exclusion chromatography; conditions: newly prepared solution
Protocol: In parallel, the stability of the different ATBS (acid AH or potassium salt AK2a) in solid form was also assessed over the same period of time.
In this case, every three months, 500 g of a solution of ATBS.K was freshly prepared according to the preparation process described in example 10a or 11 using the stored ATBS products of AH, AK2a and CE-AK2c to 2e.
Stability of the solid products was also assessed by monitoring the amount of homopolymers of ATBS.K present after that time.
The solutions were analysed by liquid-phase steric exclusion chromatography using an Agilent 1260 chromatograph equipped with Aquagel-OH 20, 30, 40 and 50 columns allowing analysis of anionic polymers up to 600,000 g/mol PEG equivalent.
The solutions of ATBS.K were diluted to 2000 ppm (by weight in water) before being injected. The UV signal at 250 nm at the column outlet was integrated for the polymer peaks and are detailed in tables 4 and 5 below. The larger the signal area, the more polymer is present, and therefore the lower the stability of the product over time. Table 4: Stability of ATBS and ATBS potassium salt stored in solutions

[3] = Minimum ignition energy (MIE), standard NF EN 13821, vertical Hartmann tube; conditions: dispersed solid mass 0,5 g
Excerpt: The minimum ignition energy represents the minimum energy that must be supplied to a product (chemical compound) to cause it to ignite. The energy may be electrical or thermal. The minimum ignition energy is an essential piece of information when considering the risk of explosion during product handling (transfer, storage, reaction, shaping, etc.). In the case of solids, this energy is the minimum energy of an electric spark likely to ignite a cloud of dust. The higher the value of the minimum ignition energy, the less risk the solid presents when used, handled or stored. The minimum ignition energy is measured in accordance with standard NF EN 13821. The explosimeter is a vertical Hartmann tube. The dust dispersion system is of the mushroom type. Total induction is less than 25 microhenry. Discharge voltage is between 5 kV and 15 kV. The electrodes are made of brass and spaced apart by a minimum distance of 6 mm.

Structure (SMILES): C=CC(=O)NC(C)(C)CS(=O)(=O)O [ATBS AH, 2-acrylamido-2-methylpropanesulphonic acid]
- 90% of the particles are smaller than [1]: 100 µm
- d50 value [1]: approximately 40 µm
- UV signal at 250 nm integrated for the polymer peaks ([2]; T0): 0 mV.s
- UV signal at 250 nm integrated for the polymer peaks ([2]; T0 + 3 months): 250 mV.s
- UV signal at 250 nm integrated for the polymer peaks ([2]; T0 + 6 months): 7702 mV.s
- UV signal at 250 nm integrated for the polymer peaks ([2]; T0 + 9 months): 10503 mV.s
- UV signal at 250 nm integrated for the polymer peaks ([2]; T0 + 12 months): 256300 mV.s
- Flame ([3]; Energy 300 mJ): Average
- Pressure ([3]; Energy 300 mJ): Average
- Flame ([3]; Energy 500 mJ): Average
- Pressure ([3]; Energy 500 mJ): Average
- Flame ([3]; Energy 1000 mJ): Small
- Pressure ([3]; Energy 1000 mJ): Low

Structure (SMILES): C=CC(=O)NC(C)(C)CS(=O)(=O)[O-].[K+] [ATBS.K AK2a, 2-acrylamido-2-methylpropanesulphonic acid potassium salt]
- 90% of the particles are smaller than [1]: approximately 1500 µm
- d50 value [1]: approximately 600 µm
- particles smaller than 325 µm [1]: less than 10%
- UV signal at 250 nm integrated for the polymer peaks ([2]; T0): 0 mV.s
- UV signal at 250 nm integrated for the polymer peaks ([2]; T0 + 3 months, potassium salt): 200 mV.s
- UV signal at 250 nm integrated for the polymer peaks ([2]; T0 + 6 months): 6532 mV.s
- UV signal at 250 nm integrated for the polymer peaks ([2]; T0 + 9 months): 9532 mV.s
- UV signal at 250 nm integrated for the polymer peaks ([2]; T0 + 12 months): 25631 mV.s
- Flame ([3]; High energy): Small
- Pressure ([3]; High energy): Low

Structure (SMILES): C=CC(=O)NC(C)(C)CS(=O)(=O)[O-].[K+] [ATBS.K CE-AK2c, 2-acrylamido-2-methylpropanesulphonic acid potassium salt]
- UV signal at 250 nm integrated for the polymer peaks ([2]; T0): 0 mV.s
- UV signal at 250 nm integrated for the polymer peaks ([2]; T0 + 3 months, potassium salt): 261 mV.s

Structure (SMILES): C=CC(=O)NC(C)(C)CS(=O)(=O)[O-].[K+] [ATBS.K CE-AK2d, 2-acrylamido-2-methylpropanesulphonic acid potassium salt]
- UV signal at 250 nm integrated for the polymer peaks ([2]; T0): 0 mV.s
- UV signal at 250 nm integrated for the polymer peaks ([2]; T0 + 3 months, potassium salt): 254 mV.s

Structure (SMILES): C=CC(=O)NC(C)(C)CS(=O)(=O)[O-].[K+] [ATBS.K CE-AK2e, 2-acrylamido-2-methylpropanesulphonic acid potassium salt]
- UV signal at 250 nm integrated for the polymer peaks ([2]; T0): 0 mV.s
- UV signal at 250 nm integrated for the polymer peaks ([2]; T0 + 3 months, potassium salt): 251 mV.s

Source: EP4496786B1, “CRYSTALLINE FORM OF 2-ACRYLAMIDO-2-METHYLPROPANESULPHONIC ACID POTASSIUM SALT” (SNF Group, priority 2023, dated 2024)
